Reference: article PMC5399447, “Neuroprotective pentapeptide CN-105 is associated with reduced sterile inflammation and improved functional outcomes in a traumatic brain injury murine model” (Scientific Reports, 2017)

System: 84 genes related to inflammatory and autoimmune processes
Assay: Mouse Inflammatory Response and Autoimmunity PCR Array, whole brain
Format: in vivo
Details: brain 24 h
Experimental: Frozen, pulverized whole brain tissue was processed for RNA extraction from a separate cohort of treated and untreated injured animals on days 1 post-injury(CN-105, n = 4; vehicle, n = 3; Control(sham-operated), n = 3). Total RNA was extracted from frozen, pulverized whole brain tissue using RNeasy Lipid Tissue Mini Kit(Qiagen, Valencia, CA). RNA quantity and quality was assessed with the NanoDrop ND-1000 spectrophotometer(NanoDrop Technologies, Inc., Wilmington, DE) and by agarose gel electrophoresis. Only samples with a 260/280 ratio between 1.9–2.1, and a 260/230 ratio greater than 2.0, were further processed. First strand complementary DNA(cDNA) was generated from 2 μg total RNA using the RT[2] First strand kit(SABiosciences, Frederick, MD.)
Gene expression was measured using the Mouse Inflammatory Response and Autoimmunity PCR Array(SABiosciences, Frederick, MD), which profiles the expression of 84 genes related to inflammatory and autoimmune processes. RT-PCR was performed according to manufacturer’s instructions Quality of the cDNA and PCR efficiency was verified by housekeeping genes and RT-PCR controls included in the PCR Array.
Raw RT-PCR data were analyzed using the Web-Based PCR Array Data Analysis software(SABiosciences). ΔCt values and ΔΔCt - based fold-change were calculated from raw threshold cycle data, using beta-actin and glyceraldehyde 3-phosphate dehydrogenase(GAPDH) as internal standards for normalization. Fold changes were then normalized against sham-operated controls.

Ac-VSRRR-amide [CN-105]
Il22ra2 ΔCt value, S-CN-105 (sham + CN-105 0.05 mg/kg iv): 1.1E − 04
Il22 ΔCt value, S-CN-105 (sham + CN-105 0.05 mg/kg iv): 4.7E − 04
Il23a ΔCt value, S-CN-105 (sham + CN-105 0.05 mg/kg iv): 8.0E − 05
Il23r ΔCt value, S-CN-105 (sham + CN-105 0.05 mg/kg iv): 1.5E − 04
Itgb2 ΔCt value, S-CN-105 (sham + CN-105 0.05 mg/kg iv): 1.3E − 02
Kng1 ΔCt value, S-CN-105 (sham + CN-105 0.05 mg/kg iv): 1.4E − 05
Lta ΔCt value, S-CN-105 (sham + CN-105 0.05 mg/kg iv): 2.6E − 04
Ltb ΔCt value, S-CN-105 (sham + CN-105 0.05 mg/kg iv): 1.0E − 03
Ly96 ΔCt value, S-CN-105 (sham + CN-105 0.05 mg/kg iv): 7.2E − 03
Myd88 ΔCt value, S-CN-105 (sham + CN-105 0.05 mg/kg iv): 1.1E − 03
Nfatc3 ΔCt value, S-CN-105 (sham + CN-105 0.05 mg/kg iv): 2.1E − 02
Nfkb1 ΔCt value, S-CN-105 (sham + CN-105 0.05 mg/kg iv): 3.1E − 02
Nos2 ΔCt value, S-CN-105 (sham + CN-105 0.05 mg/kg iv): 8.9E − 05
Nr3c1 ΔCt value, S-CN-105 (sham + CN-105 0.05 mg/kg iv): 4.0E − 01
Ripk2 ΔCt value, S-CN-105 (sham + CN-105 0.05 mg/kg iv): 1.1E − 02
Tirap ΔCt value, S-CN-105 (sham + CN-105 0.05 mg/kg iv): 7.8E − 03
Tlr1 ΔCt value, S-CN-105 (sham + CN-105 0.05 mg/kg iv): 1.0E − 03
Tlr2 ΔCt value, S-CN-105 (sham + CN-105 0.05 mg/kg iv): 1.3E − 03
Tlr3 ΔCt value, S-CN-105 (sham + CN-105 0.05 mg/kg iv): 2.3E − 02
Tlr4 ΔCt value, S-CN-105 (sham + CN-105 0.05 mg/kg iv): 3.5E − 03
Tlr5 ΔCt value, S-CN-105 (sham + CN-105 0.05 mg/kg iv): 6.3E − 04
Tlr6 ΔCt value, S-CN-105 (sham + CN-105 0.05 mg/kg iv): 6.2E − 04
Tlr7 ΔCt value, S-CN-105 (sham + CN-105 0.05 mg/kg iv): 2.6E − 03
Tnf ΔCt value, S-CN-105 (sham + CN-105 0.05 mg/kg iv): 3.5E − 05
Tnfsf14 ΔCt value, S-CN-105 (sham + CN-105 0.05 mg/kg iv): 1.3E − 04
Tollip ΔCt value, S-CN-105 (sham + CN-105 0.05 mg/kg iv): 3.2E − 01
Bcl6 fold change S-CN-105/S-v (sham CN-105 vs sham vehicle): 1.3
C3ar1 fold change S-CN-105/S-v (sham CN-105 vs sham vehicle): 1.2
C3 fold change S-CN-105/S-v (sham CN-105 vs sham vehicle): 1.7
C4b fold change S-CN-105/S-v (sham CN-105 vs sham vehicle): 2.0
Ccl2 fold change S-CN-105/S-v (sham CN-105 vs sham vehicle): 1.4
Ccl3 fold change S-CN-105/S-v (sham CN-105 vs sham vehicle): 1.6
Ccl4 fold change S-CN-105/S-v (sham CN-105 vs sham vehicle): 1.0
Ccl5 fold change S-CN-105/S-v (sham CN-105 vs sham vehicle): 1.2
Ccl7 fold change S-CN-105/S-v (sham CN-105 vs sham vehicle): 1.3
Ccl8 fold change S-CN-105/S-v (sham CN-105 vs sham vehicle): 2.8
Ccl11 fold change S-CN-105/S-v (sham CN-105 vs sham vehicle): 3.2
Ccl12 fold change S-CN-105/S-v (sham CN-105 vs sham vehicle): 1.8
Ccl17 fold change S-CN-105/S-v (sham CN-105 vs sham vehicle): 1.6
Ccl19 fold change S-CN-105/S-v (sham CN-105 vs sham vehicle): 1.5
Ccl20 fold change S-CN-105/S-v (sham CN-105 vs sham vehicle): 4.4
Ccl22 fold change S-CN-105/S-v (sham CN-105 vs sham vehicle): 3.1
Ccl24 fold change S-CN-105/S-v (sham CN-105 vs sham vehicle): 3.0
Ccl25 fold change S-CN-105/S-v (sham CN-105 vs sham vehicle): 2.6
Ccr1 fold change S-CN-105/S-v (sham CN-105 vs sham vehicle): −1.1
Ccr2 fold change S-CN-105/S-v (sham CN-105 vs sham vehicle): 2.1
Ccr3 fold change S-CN-105/S-v (sham CN-105 vs sham vehicle): 1.2
Ccr4 fold change S-CN-105/S-v (sham CN-105 vs sham vehicle): 1.5
Ccr7 fold change S-CN-105/S-v (sham CN-105 vs sham vehicle): 1.8
Cd40 fold change S-CN-105/S-v (sham CN-105 vs sham vehicle): 1.5
Cebpb fold change S-CN-105/S-v (sham CN-105 vs sham vehicle): 1.6
Csf1 fold change S-CN-105/S-v (sham CN-105 vs sham vehicle): 1.7
Cxcl1 fold change S-CN-105/S-v (sham CN-105 vs sham vehicle): 2.7
Cxcl2 fold change S-CN-105/S-v (sham CN-105 vs sham vehicle): 4.2
Cxcl3 fold change S-CN-105/S-v (sham CN-105 vs sham vehicle): 0.8
Cxcl5 fold change S-CN-105/S-v (sham CN-105 vs sham vehicle): 1.7
Cxcl9 fold change S-CN-105/S-v (sham CN-105 vs sham vehicle): 1.5
Cxcl10 fold change S-CN-105/S-v (sham CN-105 vs sham vehicle): 2.1
Cxcl11 fold change S-CN-105/S-v (sham CN-105 vs sham vehicle): 3.8
Cxcr4 fold change S-CN-105/S-v (sham CN-105 vs sham vehicle): 1.5
Fasl fold change S-CN-105/S-v (sham CN-105 vs sham vehicle): 0.9
Flt3l fold change S-CN-105/S-v (sham CN-105 vs sham vehicle): 1.5
Fos fold change S-CN-105/S-v (sham CN-105 vs sham vehicle): 1.6
Hdac4 fold change S-CN-105/S-v (sham CN-105 vs sham vehicle): 1.5
Ifng fold change S-CN-105/S-v (sham CN-105 vs sham vehicle): 0.8
Il1a fold change S-CN-105/S-v (sham CN-105 vs sham vehicle): 1.4
Il1b fold change S-CN-105/S-v (sham CN-105 vs sham vehicle): 1.8
Il1r1 fold change S-CN-105/S-v (sham CN-105 vs sham vehicle): 2.6
Il1rap fold change S-CN-105/S-v (sham CN-105 vs sham vehicle): 1.5
Il6 fold change S-CN-105/S-v (sham CN-105 vs sham vehicle): −1.3
Il6ra fold change S-CN-105/S-v (sham CN-105 vs sham vehicle): 1.5
Il7 fold change S-CN-105/S-v (sham CN-105 vs sham vehicle): 3.1
Il8rb fold change S-CN-105/S-v (sham CN-105 vs sham vehicle): 7.3
Il10 fold change S-CN-105/S-v (sham CN-105 vs sham vehicle): 5.7
Il10rb fold change S-CN-105/S-v (sham CN-105 vs sham vehicle): 2.0
Il18 fold change S-CN-105/S-v (sham CN-105 vs sham vehicle): 2.0
Il22 fold change S-CN-105/S-v (sham CN-105 vs sham vehicle): 10.8
Il22ra2 fold change S-CN-105/S-v (sham CN-105 vs sham vehicle): 4.8
Il23a fold change S-CN-105/S-v (sham CN-105 vs sham vehicle): 3.0
Il23r fold change S-CN-105/S-v (sham CN-105 vs sham vehicle): 1.4
Itgb2 fold change S-CN-105/S-v (sham CN-105 vs sham vehicle): 2.5
Lta fold change S-CN-105/S-v (sham CN-105 vs sham vehicle): 2.3
Ltb fold change S-CN-105/S-v (sham CN-105 vs sham vehicle): 2.0
Ly96 fold change S-CN-105/S-v (sham CN-105 vs sham vehicle): 1.9
Myd88 fold change S-CN-105/S-v (sham CN-105 vs sham vehicle): 1.5
Nfatc3 fold change S-CN-105/S-v (sham CN-105 vs sham vehicle): 2.4
Nfkb1 fold change S-CN-105/S-v (sham CN-105 vs sham vehicle): 1.8
Nos2 fold change S-CN-105/S-v (sham CN-105 vs sham vehicle): 1.0
Nr3c1 fold change S-CN-105/S-v (sham CN-105 vs sham vehicle): 2.0
Ripk2 fold change S-CN-105/S-v (sham CN-105 vs sham vehicle): 1.5
Tirap fold change S-CN-105/S-v (sham CN-105 vs sham vehicle): 2.1
Tlr1 fold change S-CN-105/S-v (sham CN-105 vs sham vehicle): 2.2
Tlr2 fold change S-CN-105/S-v (sham CN-105 vs sham vehicle): 1.4
Tlr3 fold change S-CN-105/S-v (sham CN-105 vs sham vehicle): 1.6
Tlr4 fold change S-CN-105/S-v (sham CN-105 vs sham vehicle): 1.1
Tlr5 fold change S-CN-105/S-v (sham CN-105 vs sham vehicle): 0.9
Tlr6 fold change S-CN-105/S-v (sham CN-105 vs sham vehicle): 1.3
Tlr7 fold change S-CN-105/S-v (sham CN-105 vs sham vehicle): 1.6
Tnf fold change S-CN-105/S-v (sham CN-105 vs sham vehicle): 1.3
Tnfsf14 fold change S-CN-105/S-v (sham CN-105 vs sham vehicle): 5.2
Tollip fold change S-CN-105/S-v (sham CN-105 vs sham vehicle): 1.9
downregulation of gene expression, sham CN-105 vs sham vehicle (sham mice, 0.05 mg/kg): No downregulation of gene expression was observed
